± gives the standard deviation of the averaged measurements.
Tested on: PATU8988T-SmBKRAS-LgBCRAF
Assay: KRAS:CRAF interaction luminescence (EndoBind) relative to DMSO control (fold of DMSO); higher = more KRAS-CRAF complex
Description: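 EndoBind assay: PATU8988T cells with CRISPR knock-in SmB-KRAS(G12V) and LgB-CRAF, seeded with RealTime-Glo pro-substrate (1:2000) in 384-well plates. Cells were treated with RAF inhibitors (GDC0879, LY3009120, NVP-LHS533) or the MEK inhibitor Selumetinib, and the same plate was read for split-NanoLuc luminescence at several time points. Signal is normalised to the DMSO-treated wells at each time point; n=3 wells.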

Cn1cnc2c(F)c(Nc3ccc(Br)cc3Cl)c(C(=O)NOCCO)cc21 [Selumetinib]
KRAS:CRAF interaction luminescence
Conditions | time after treatment 0 h | time after treatment 1 h | time after treatment 4 h | time after treatment 6 h | time after treatment 9 h | time after treatment 12 h
0.00375 µM | 0.968 ± 0.07 | 0.983 ± 0.066 | 0.958 ± 0.032 | 0.954 ± 0.037 | 0.937 ± 0.023 | 0.963 ± 0.028
0.0075 µM | 0.975 ± 0.058 | 0.977 ± 0.067 | 0.949 ± 0.036 | 0.931 ± 0.021 | 0.943 ± 0.042 | 0.974 ± 0.051
0.015 µM | 1.01 ± 0.029 | 0.979 ± 0.075 | 0.958 ± 0.031 | 0.953 ± 0.018 | 0.939 ± 0.043 | 0.934 ± 0.037
0.03 µM | 0.961 ± 0.069 | 0.971 ± 0.072 | 0.973 ± 0.017 | 0.97 ± 0.028 | 0.956 ± 0.036 | 0.965 ± 0.03
0.06 µM | 0.995 ± 0.049 | 0.976 ± 0.069 | 0.976 ± 0.018 | 0.935 ± 0.025 | 0.945 ± 0.03 | 0.984 ± 0.013
0.12 µM | 0.994 ± 0.057 | 0.979 ± 0.064 | 0.974 ± 0.013 | 0.975 ± 0.025 | 0.948 ± 0.04 | 0.973 ± 0.031
0.24 µM | 0.994 ± 0.029 | 0.993 ± 0.07 | 0.988 ± 0.018 | 0.975 ± 0.023 | 0.96 ± 0.037 | 0.963 ± 0.04
0.46875 µM | 1 ± 0.043 | 0.995 ± 0.069 | 1 ± 0.02 | 0.985 ± 0.031 | 0.982 ± 0.017 | 0.992 ± 0.028
0.9375 µM | 1.01 ± 0.045 | 1.04 ± 0.071 | 1.02 ± 0.025 | 1.03 ± 0.035 | 0.994 ± 0.027 | 1.01 ± 0.043
1.875 µM | 0.978 ± 0.05 | 1.07 ± 0.084 | 1.06 ± 0.029 | 1.06 ± 0.043 | 1.04 ± 0.048 | 1.06 ± 0.068
3.75 µM | 0.99 ± 0.061 | 1.14 ± 0.099 | 1.12 ± 0.013 | 1.1 ± 0.031 | 1.1 ± 0.03 | 1.11 ± 0.063
7.5 µM | 1.01 ± 0.11 | 1.02 ± 0.12 | 1 ± 0.032 | 0.995 ± 0.034 | 0.981 ± 0.033 | 0.998 ± 0.035
15 µM | 1.02 ± 0.059 | 1.02 ± 0.1 | 1 ± 0.02 | 0.983 ± 0.032 | 0.974 ± 0.024 | 0.987 ± 0.043
30 µM | – | – | 0.953 ± 0.019 | – | – | –
